From patent US8598126B2, “Peptides for inhibiting the HPV-E6 oncoprotein” (priority 2008, dated 2013)

What was measured:
[1] = system: HPV16-positive CaSki cells; assay: Clonogenic survival assay, CaSki; type: cell-based; settings: stable expression
[2] = system: HPV16-positive SiHa cells; assay: Clonogenic survival assay, SiHa; type: cell-based; settings: stable expression
Text: HPV16-positive cell lines SiHa and MRI-H-186, HPV18-positive HeLa cells and the HPV-negative osteosarcoma cell line U-2 OS were transfected with peptide expression vectors which allowed for hygromcyin B selection (pCEP4, Invitrogen). After 6-7 days of selection, cells were fixed and stained with formaldehyde-crystal violet solution.

HPV16 E6 = HPV16 E6 (Human papillomavirus type 16, UniProt P03126); settings: FIG. 1, solubility-optimized versions and mutants
Chain of HPV16 E6 (P03126 whole entry): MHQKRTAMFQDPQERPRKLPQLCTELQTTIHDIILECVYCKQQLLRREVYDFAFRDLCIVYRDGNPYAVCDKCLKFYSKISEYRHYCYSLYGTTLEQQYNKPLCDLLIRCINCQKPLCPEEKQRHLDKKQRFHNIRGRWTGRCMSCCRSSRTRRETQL

Row | Substance | growth in clonogenic survival assay [1] | growth in clonogenic survival assay [2] | activity (binding to HPV16 E6) of pep 11 variants and mutants (HPV16 E6)
1 | pep11**m (EYNSNCSCIACIGLI; E6 pep11*) | showed no effect | showed no effect | inactive
2 | E6AP peptide: E6 binding consensus motif within E6AP (SEQ ID NO: 9) (KEKEEYNSNSSSIASIGLI; E6 pep11*) [reference compound] | showed no effect | showed no effect | –
